Our source for the Ki values is patent publication US12723063B2, “GIPR-agonist compounds” (Eli Lilly and Company, priority 2019, dated 2026).

One assay deals with T1, human GLP-1R (Homo sapiens, UniProt P43220).
T1 construct: expressed in transfected cells; crude membranes
The assay is described as follows: [125I]-GLP-1 binding, SPA with WGA beads, 0.1% bacitracin. To be noted: geometric mean, read-out: hGLP1R Ki. A digest of the protocol:
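Binding buffer was 25 mM HEPES pH 7.4 with 2.5 mM CaCl2, 1 mM MgCl2, 0.1% (w/v) bacitracin, 0.003% Tween-20 and EDTA-free protease inhibitors. Four-parameter regression gave IC50, converted to Ki (geometric mean, SEM, n independent days).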

For a further assay, the target named is T2, human GcgR (Homo sapiens, UniProt P47871).
T2 construct: expressed in transfected cells; crude membranes
The assay is described as follows: [125I]-Glucagon binding, SPA with WGA beads, 0.1% bacitracin. To be noted: geometric mean, read-out: hGcgR Ki. The method, boiled down:
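SPA competition binding with WGA beads on crude membranes from HEK293 cells stably expressing hGcgR. Buffer: 25 mM HEPES pH 7.4, 2.5 mM CaCl2, 1 mM MgCl2, 0.1% bacitracin, 0.003% Tween-20; 10-point 3-fold dilutions, NSB with 1 μM Gcg.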

The next assay concerns the target T3, human GIPR (Homo sapiens, UniProt P48546).
T3 construct: expressed in transfected cells; crude membranes
T3 sequence (P48546 22-466): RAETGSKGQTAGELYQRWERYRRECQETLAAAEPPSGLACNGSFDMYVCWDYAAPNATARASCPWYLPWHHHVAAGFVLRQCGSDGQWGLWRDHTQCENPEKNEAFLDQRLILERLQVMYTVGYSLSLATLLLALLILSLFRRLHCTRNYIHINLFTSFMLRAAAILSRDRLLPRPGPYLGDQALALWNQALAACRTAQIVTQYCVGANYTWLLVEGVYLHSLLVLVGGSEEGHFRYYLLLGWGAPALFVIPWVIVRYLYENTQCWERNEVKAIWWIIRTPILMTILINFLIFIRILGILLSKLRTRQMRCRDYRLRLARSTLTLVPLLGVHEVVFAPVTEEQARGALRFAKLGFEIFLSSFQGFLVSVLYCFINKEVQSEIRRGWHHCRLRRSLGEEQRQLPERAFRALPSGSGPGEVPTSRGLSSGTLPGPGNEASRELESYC
The experiment in a line: [125I]-GIP binding, SPA with WGA beads, 0.1% bacitracin. To be noted: geometric mean, read-out: hGIPR Ki. The method, boiled down:
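Ki values are geometric means (SEM, n independent days), derived from four-parameter nonlinear regression of IC50. Membranes came from hGIPR-expressing CHO cells.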

Structures are written as SMILES. pKi: −log10 of the molar value. *1 amine or outer side, *2 acyl side, *3 side chain or, on linkers, in order; H or OH if unused. Where a SMILES comes first, the peptide text is derived from it. Side-chain parts run from the residue outwards. [ ]: non-standard residue; d: D form. The star is where a group is joined. C20 diacid = O=C(O)CCCCCCCCCCCCCCCCCCC(=O)*; C18 diacid = O=C(O)CCCCCCCCCCCCCCCCC(=O)*; γGlu = O=C(O)[C@H](CCC(=O)[*:2])N[*:1]; 4Pal = N[C@@H](Cc1ccncc1)C(=O)O; αMeL = CC(C)C[C@](C)(N)C(=O)O; Orn = NCCC[C@H](N)C(=O)O; AEEA = NCCOCCOCC(=O)O; Aib = CC(C)(N)C(=O)O

T2 sequence (P47871 26-477): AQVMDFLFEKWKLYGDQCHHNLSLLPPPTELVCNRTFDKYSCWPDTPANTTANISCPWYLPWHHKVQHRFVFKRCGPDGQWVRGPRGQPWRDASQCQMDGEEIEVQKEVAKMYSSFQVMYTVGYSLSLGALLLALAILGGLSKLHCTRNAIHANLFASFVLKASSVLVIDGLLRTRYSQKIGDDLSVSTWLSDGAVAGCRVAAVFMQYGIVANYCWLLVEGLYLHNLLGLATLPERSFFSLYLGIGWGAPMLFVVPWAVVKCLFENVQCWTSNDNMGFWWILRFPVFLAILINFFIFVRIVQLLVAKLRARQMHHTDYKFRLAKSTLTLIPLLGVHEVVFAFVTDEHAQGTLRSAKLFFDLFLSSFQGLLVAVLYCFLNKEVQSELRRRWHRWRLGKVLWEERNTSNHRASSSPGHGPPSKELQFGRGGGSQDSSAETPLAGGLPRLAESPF
T1 sequence (P43220 24-463): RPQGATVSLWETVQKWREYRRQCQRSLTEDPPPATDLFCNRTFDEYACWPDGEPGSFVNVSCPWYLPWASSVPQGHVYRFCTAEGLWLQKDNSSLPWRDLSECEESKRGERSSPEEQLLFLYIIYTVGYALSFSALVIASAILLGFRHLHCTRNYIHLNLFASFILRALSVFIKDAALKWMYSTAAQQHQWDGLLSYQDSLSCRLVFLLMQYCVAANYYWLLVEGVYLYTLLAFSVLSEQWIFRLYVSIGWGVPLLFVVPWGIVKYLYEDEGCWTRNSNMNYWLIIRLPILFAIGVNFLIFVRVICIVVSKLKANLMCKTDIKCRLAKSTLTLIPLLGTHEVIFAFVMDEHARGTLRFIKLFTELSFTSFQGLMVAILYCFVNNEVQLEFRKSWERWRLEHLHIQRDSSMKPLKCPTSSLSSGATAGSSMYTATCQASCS

Consider `CC[C@H](C)[C@H](NC(=O)[C@H](Cc1ccccc1)NC(=O)[C@@H](NC(=O)CNC(=O)[C@H](CCC(=O)O)NC(=O)C(C)(C)NC(=O)[C@@H](N)Cc1ccc(O)cc1)[C@@H](C)O)C(=O)N[C@@H](CO)C(=O)N[C@@H](CC(=O)O)C(=O)N[C@@H](Cc1ccc(O)cc1)C(=O)N[C@@H](CO)C(=O)N[C@H](C(=O)N[C@@](C)(CC(C)C)C(=O)N[C@@H](CC(C)C)C(=O)N[C@@H](CC(=O)O)C(=O)N[C@@H](CCC(=O)O)C(=O)N[C@@H](CCCCNC(=O)COCCOCCNC(=O)COCCOCCNC(=O)CC[C@H](NC(=O)CCCCCCCCCCCCCCCCCCC(=O)O)C(=O)O)C(=O)N[C@@H](Cc1c[nH]cn1)C(=O)N[C@@H](CCC(N)=O)C(=O)NC(C)(C)C(=O)N[C@@H](CC(=O)O)C(=O)N[C@@H](Cc1ccccc1)C(=O)N[C@H](C(=O)N[C@@H](CCC(=O)O)C(=O)N[C@@H](Cc1ccncc1)C(=O)N[C@@H](CC(C)C)C(=O)N[C@@H](CC(C)C)C(=O)N[C@@H](C)C(=O)N[C@H](C(=O)NCC(=O)N1CCC[C@H]1C(=O)N[C@@H](CO)C(=O)N[C@@H](CO)C(=O)NCC(=O)N[C@@H](C)C(=O)N1CCC[C@H]1C(=O)N1CCC[C@H]1C(=O)N1CCC[C@H]1C(=O)N[C@@H](CO)C(N)=O)[C@@H](C)O)C(C)C)[C@@H](C)CC` [Example 83] (H-Y[Aib]EGTFISDYSI[αMeL]LDEK([AEEA-AEEA-γGlu-C20 diacid])HQ[Aib]DFVE[4Pal]LLATGPSSGAPPPS-NH2), for which the figures for the pKi on human GLP-1R, at human GcgR and on human GIPR were 6.34, less than 6.02 and 9.94, respectively.

With `CC[C@H](C)[C@H](NC(=O)[C@H](Cc1ccccc1)NC(=O)[C@@H](NC(=O)CNC(=O)[C@H](CCC(=O)O)NC(=O)C(C)(C)NC(=O)[C@@H](N)Cc1ccc(O)cc1)[C@@H](C)O)C(=O)N[C@@H](CO)C(=O)N[C@@H](CC(=O)O)C(=O)N[C@@H](Cc1ccc(O)cc1)C(=O)N[C@@H](CO)C(=O)N[C@H](C(=O)N[C@@](C)(CC(C)C)C(=O)N[C@@H](CC(C)C)C(=O)N[C@@H](CC(=O)O)C(=O)N[C@@H](CCC(=O)O)C(=O)N[C@@H](CCCCNC(=O)COCCOCCNC(=O)COCCOCCNC(=O)CC[C@H](NC(=O)CCCCCCCCCCCCCCCCCCC(=O)O)C(=O)O)C(=O)N[C@@H](Cc1c[nH]cn1)C(=O)N[C@@H](CCC(N)=O)C(=O)NC(C)(C)C(=O)N[C@@H](CC(=O)O)C(=O)N[C@@H](Cc1ccccc1)C(=O)N[C@H](C(=O)N[C@@H](CCC(=O)O)C(=O)N[C@@H](Cc1ccncc1)C(=O)N[C@@H](CC(C)C)C(=O)N[C@@H](CC(C)C)C(=O)N[C@@H](C)C(=O)N[C@@H](CCC(N)=O)C(=O)NCC(=O)N1CCC[C@H]1C(=O)N[C@@H](CO)C(=O)N[C@@H](CO)C(=O)NCC(=O)N[C@@H](C)C(=O)N1CCC[C@H]1C(=O)N1CCC[C@H]1C(=O)N1CCC[C@H]1C(=O)N[C@@H](CO)C(N)=O)C(C)C)[C@@H](C)CC` [Example 84] (H-Y[Aib]EGTFISDYSI[αMeL]LDEK([AEEA-AEEA-γGlu-C20 diacid])HQ[Aib]DFVE[4Pal]LLAQGPSSGAPPPS-NH2), the pKi on human GLP-1R is 6.49; at human GcgR it was less than 6.02; at human GIPR, 10.23.

With `CC[C@H](C)[C@H](NC(=O)[C@H](Cc1ccccc1)NC(=O)[C@@H](NC(=O)CNC(=O)[C@H](CCC(=O)O)NC(=O)C(C)(C)NC(=O)[C@@H](N)Cc1ccc(O)cc1)[C@@H](C)O)C(=O)N[C@@H](CO)C(=O)N[C@@H](CC(=O)O)C(=O)N[C@@H](Cc1ccc(O)cc1)C(=O)N[C@@H](CO)C(=O)N[C@H](C(=O)N[C@@](C)(CC(C)C)C(=O)N[C@@H](CC(C)C)C(=O)N[C@@H](CC(=O)O)C(=O)N[C@@H](CCC(=O)O)C(=O)N[C@@H](CCCCNC(=O)COCCOCCNC(=O)COCCOCCNC(=O)CC[C@H](NC(=O)CCCCCCCCCCCCCCCCCCC(=O)O)C(=O)O)C(=O)N[C@@H](Cc1c[nH]cn1)C(=O)N[C@@H](CCC(N)=O)C(=O)NC(C)(C)C(=O)N[C@@H](CC(=O)O)C(=O)N[C@@H](Cc1ccccc1)C(=O)N[C@H](C(=O)N[C@@H](CCC(=O)O)C(=O)N[C@@H](Cc1ccncc1)C(=O)N[C@@H](CC(C)C)C(=O)N[C@@H](CC(C)C)C(=O)N[C@@H](C)C(=O)N[C@@H](C)C(=O)NCC(=O)N1CCC[C@H]1C(=O)N[C@@H](CO)C(=O)N[C@@H](CO)C(=O)NCC(=O)N[C@@H](C)C(=O)N1CCC[C@H]1C(=O)N1CCC[C@H]1C(=O)N1CCC[C@H]1C(=O)N[C@@H](CO)C(N)=O)C(C)C)[C@@H](C)CC` [Example 85], the pKi at human GLP-1R is 6.66; at human GcgR, 6.10; at human GIPR, 10.28.

Consider `CC[C@H](C)[C@H](NC(=O)[C@H](Cc1ccccc1)NC(=O)[C@@H](NC(=O)CNC(=O)[C@H](CCC(=O)O)NC(=O)C(C)(C)NC(=O)[C@@H](N)Cc1ccc(O)cc1)[C@@H](C)O)C(=O)N[C@@H](CO)C(=O)N[C@@H](CC(=O)O)C(=O)N[C@@H](Cc1ccc(O)cc1)C(=O)N[C@@H](CO)C(=O)N[C@H](C(=O)N[C@@](C)(CC(C)C)C(=O)N[C@@H](CC(C)C)C(=O)N[C@@H](CC(=O)O)C(=O)N[C@@H](CCC(=O)O)C(=O)N[C@@H](CCCCNC(=O)COCCOCCNC(=O)COCCOCCNC(=O)CC[C@H](NC(=O)CCCCCCCCCCCCCCCCCCC(=O)O)C(=O)O)C(=O)N[C@@H](Cc1c[nH]cn1)C(=O)N[C@@H](CCC(N)=O)C(=O)NC(C)(C)C(=O)N[C@@H](CC(=O)O)C(=O)N[C@@H](Cc1ccccc1)C(=O)N[C@H](C(=O)N[C@@H](CCC(=O)O)C(=O)N[C@@H](Cc1ccncc1)C(=O)N[C@@H](CC(C)C)C(=O)N[C@@H](CC(C)C)C(=O)N[C@@H](C)C(=O)NCC(=O)NCC(=O)N1CCC[C@H]1C(=O)N[C@@H](CO)C(=O)N[C@@H](CO)C(=O)NCC(=O)N[C@@H](C)C(=O)N1CCC[C@H]1C(=O)N1CCC[C@H]1C(=O)N1CCC[C@H]1C(=O)N[C@@H](CO)C(N)=O)C(C)C)[C@@H](C)CC` [Example 86], for which the pKi is 6.97 on human GLP-1R, 6.34 on human GcgR and 10.27 on human GIPR.

As to `CC[C@H](C)[C@H](NC(=O)[C@H](Cc1ccccc1)NC(=O)[C@@H](NC(=O)CNC(=O)[C@H](CCC(=O)O)NC(=O)C(C)(C)NC(=O)[C@@H](N)Cc1ccc(O)cc1)[C@@H](C)O)C(=O)N[C@@H](CO)C(=O)N[C@@H](CC(=O)O)C(=O)N[C@@H](Cc1ccc(O)cc1)C(=O)N[C@@H](CO)C(=O)N[C@H](C(=O)N[C@@](C)(CC(C)C)C(=O)N[C@@H](CC(C)C)C(=O)N[C@@H](CC(=O)O)C(=O)N[C@@H](CCCN)C(=O)N[C@@H](CCCCNC(=O)COCCOCCNC(=O)COCCOCCNC(=O)CC[C@H](NC(=O)CCCCCCCCCCCCCCCCC(=O)O)C(=O)O)C(=O)N[C@@H](Cc1c[nH]cn1)C(=O)N[C@@H](CCC(N)=O)C(=O)NC(C)(C)C(=O)N[C@@H](CC(=O)O)C(=O)N[C@@H](Cc1ccccc1)C(=O)N[C@H](C(=O)N[C@@H](CCC(=O)O)C(=O)N[C@@H](Cc1ccncc1)C(=O)N[C@@H](CC(C)C)C(=O)N[C@@H](CC(C)C)C(=O)N[C@@H](CCC(=O)O)C(=O)N[C@@H](C)C(=O)NCC(=O)N1CCC[C@H]1C(=O)N[C@@H](CO)C(=O)N[C@@H](CO)C(=O)NCC(=O)N[C@@H](C)C(=O)N1CCC[C@H]1C(=O)N1CCC[C@H]1C(=O)N1CCC[C@H]1C(=O)N[C@@H](CO)C(N)=O)C(C)C)[C@@H](C)CC` [Example 87] (H-Y[Aib]EGTFISDYSI[αMeL]LD[Orn]K([AEEA-AEEA-γGlu-C18 diacid])HQ[Aib]DFVE[4Pal]LLEAGPSSGAPPPS-NH2), the negative logarithm of the Ki (pKi) at human GLP-1R is 6.07; on human GcgR, 6.24; on human GIPR it was 10.27.

A word on the pKi: it is the Ki on a negative log10 scale, so that one unit is a factor of ten.
